The values below come from publication PMC7681098 (Theranostics, 2021).

SMILES strings stand for the structures. Read-outs that look alike come from different tables or passages of the source.

One assay deals with MOLM13 cells. Put plainly: Stroma-protecting model: proliferation in HS-5 conditional medium or normal medium. The format is cell-based. Particulars: Homo sapiens. The procedure: At the indicated time point, cell viability was evaluated by MTT assay.
(A) Indicated FLT3 mutations were expressed in BaF3 cells respectively. […] The autophosphorylation level of FLT3 was visualized and compared by western blot analysis. […] The CM was prepared from HS-5 cell culture for 4 days under routine culture conditions, clarified by centrifugation, and used immediately. The CM was added to complete medium at a final concentration of 40%. Cell viabilities were measured by MTT assay. Data were shown as mean±SD. […] The FLT3 phosphorylation levels of FLT3, STAT5 and ERK 1/2 were determined by Western blot.
On the other hand, the bone marrow stroma-protecting environment containing a number of cytokines (e.g. FLT3 ligand, stromal derived factor-1, etc) could also decrease the drug efficacy of FLT3 inhibitors by activating FLT3 or its downstream effectors and building cross-talk between leukemic blasts and bone marrow microenvironment, [35].

The subject of the next assay is THP-1. Put plainly: Cell proliferation MTT assay. In kind it is cell-based. Particulars: Homo sapiens, 72 h, wild-type FLT3, read-out: Human leukemia cell line IC50 THP-1. The procedure:
(§1) The conditional medium (CM) was prepared from the supernatant of HS-5 cell culture for 5 days under normal culture conditions. At the indicated time point, cell viability was evaluated by MTT assay.

The next assay concerns MV4-11. In words: Cell proliferation MTT assay. The format is cell-based. Particulars: Homo sapiens, 72 h, read-out: Human leukemia cell line IC50 MV4-11. The procedure:
as §1
(In general: Tetrazolium dyes change colour on reduction, which living cells bring about.)

Another assay relates to MOLM13. Put plainly: Cell proliferation MTT assay. The format is cell-based. Particulars: Homo sapiens, MOLM-13, 72 h, read-out: Human leukemia cell line IC50 MOLM13. The protocol:
as §1

Another assay relates to U937. Put plainly: Cell proliferation MTT assay. In kind it is cell-based. Particulars: Homo sapiens, U-937, 72 h, wild-type FLT3, read-out: Human leukemia cell line IC50 U937. The procedure:
as §1

In another assay the target is T1, ERK1 (Homo sapiens, UniProt P27361).
T1 construct: purchased Reaction Biology Corporation (PA, USA)
In words: Kinase inhibition assay (Reaction Biology). In kind it is biochemical. Particulars: 10 μM ATP, 10-dose IC50 mode.

The test system of another assay is BaF3 cells with FLT3-ITD. Put plainly: Cell viability of transformed BaF3 cells. In kind it is cell-based, murine. Particulars: Mus musculus, read-out: BaF3 cells with FLT3 mutants IC50 ITD. The protocol: (§2) Lentivirus packaging and construction of transformed BaF3 cells were performed as described previously. […] Supernatants were collected and used to infect BaF3 cells, and transduced BaF3 cells were selected with puromycin (1 μg/ml) to obtain stably transformed cells.
as §1

For assay [1], the system named is BaF3 cells with FLT3-ITD/Y842C. Put plainly: Cell viability of transformed BaF3 cells. The format is cell-based, murine. Particulars: Mus musculus, read-out: BaF3 cells with FLT3 mutants IC50 ITD-Y842C. The procedure:
as §2, §1

Assay [2] deals with BaF3 cells with FLT3-D835Y. In words: Cell viability of transformed BaF3 cells. In kind it is cell-based, murine. Particulars: Mus musculus, read-out: BaF3 cells with FLT3 mutants IC50 D835Y. The procedure:
as §2, §1

For assay [3], the system named is BaF3 cells with FLT3-ITD/F691L. In words: Cell viability of transformed BaF3 cells. The format is cell-based, murine. Particulars: Mus musculus, read-out: BaF3 cells with FLT3 mutants IC50 ITD-F691L. The procedure: as §2, §1
The test system of assay [4] is BaF3 cells with FLT3-ITD/D835Y. Put plainly: Cell viability of transformed BaF3 cells. Particulars: Mus musculus, BaF3; cell viability; read-out: BaF3 cells with FLT3 mutants IC50 ITD-D835Y. The format is cell-based, murine. The protocol:
as §2, §1

In assay [5] the test system is BaF3 cells with FLT3-ITD/N676D. Put plainly: Cell viability of transformed BaF3 cells. The format is cell-based, murine. Particulars: Mus musculus, read-out: BaF3 cells with FLT3 mutants IC50 ITD-N676D. The procedure: as §2, §1
A further assay concerns MV4-11 cells. Put plainly: Bone marrow engrafted model, survival. Particulars: MV4-11 bone marrow engraftment; LT-171-861 10 mg/kg every other day, sorafenib orally every day. In kind it is in vivo, NOD-SCID mice. The procedure: Six-week-old female NOD-SCID mice were treated with sub-lethal dose radiation (1.8 Gy) before intravenous injection of MV4-11 cells (5×10^6) or MOLM13 cells (5×10^6).
Data were shown as mean±SD. […] Data were shown as mean±SD. (C) An engrafted tumor model was used to evaluate in vivo antitumor activity. The NOD/SCID mice were intravenously inoculated with MV4-11 cells. […] Log-rank testing was used to compare survival curves among treatment groups. […] (D) Apoptotic assays in engraft model were evaluated by TUNEL assay and cell proliferative activity was measured by Ki67 assay. Images were acquired at ×40 magnification. (E) BALB/c nude mice were subcutaneously inoculated with MV4-11 cells (5×10^6) and bodyweight of each mouse was recorded every other day. (F) Representative photo of tumors from BALB/c nude mice which were inoculated with MV4-11 cells. (G) BALB/c nude mice were subcutaneously inoculated with BaF3 cells bearing FLT3-ITD-N676D (n=6) and FLT3-ITD-F691L (n=6) respectively. […] (H) BALB/c mice were intravenously inoculated with cells used in (G). […] Log-rank testing was used to compare survival curves among treatment groups. […] (I) Representative photos of spleens dissected from mice in (H) inoculated with BaF3 cells bearing FLT-3-ITD-F691L.
Mice that received vehicle treatment died within 30 days after intravenous injection of MV4-11 cells.

T1 sequence (P27361 whole entry): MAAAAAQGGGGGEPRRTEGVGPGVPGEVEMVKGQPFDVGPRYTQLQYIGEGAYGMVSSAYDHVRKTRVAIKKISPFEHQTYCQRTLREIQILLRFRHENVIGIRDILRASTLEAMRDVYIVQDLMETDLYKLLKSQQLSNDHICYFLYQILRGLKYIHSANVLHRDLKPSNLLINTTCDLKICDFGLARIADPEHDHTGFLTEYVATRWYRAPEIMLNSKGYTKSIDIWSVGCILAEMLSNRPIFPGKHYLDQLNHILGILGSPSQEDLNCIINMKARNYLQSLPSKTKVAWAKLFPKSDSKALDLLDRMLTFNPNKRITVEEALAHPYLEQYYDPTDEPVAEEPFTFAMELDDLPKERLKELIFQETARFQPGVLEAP

For the compound `CC(C)(C)c1cc(NC(=O)Nc2ccc(-c3cn4c(n3)sc3cc(OCCN5CCOCC5)ccc34)cc2)no1` [AC220], the IC50 with MOLM13 cells (MOLM-13, 72 h, read-out: IC50 proliferation of MOLM13 cells in CM) was 116 nM; in the assay with MOLM13 cells (MOLM-13, 72 h, read-out: IC50 proliferation of MOLM13 cells in NM), 14.1 nM; in the assay on THP-1, > 1000 nM; with MV4-11, 1.5 nM; with MOLM13, 1.2 nM; in the assay on U937 it was > 1000 nM.
At ERK1, `O=C(Nc1ccc2[nH]nc(-c3ccncc3)c2c1)[C@@H]1CCN(CC(=O)N2CCN(c3ccc(-c4ncccn4)cc3)CC2)C1` [SCH772984, reference compound] came in with an IC50 of 4.9 nM.
As for `CNC(=O)c1cc(Oc2ccc(NC(=O)Nc3ccc(Cl)c(C(F)(F)F)c3)cc2)ccn1` [Sorafenib, reference compound], the IC50 turned out to be 1460 nM in the assay on MOLM13 cells (MOLM-13, HS-5 conditional medium (CM) 40%, 72 h, MTT, read-out: IC50 proliferation of MOLM13 cells in CM); 11.3 nM in the assay on MOLM13 cells (MOLM-13, normal medium (NM), 72 h, MTT, read-out: IC50 proliferation of MOLM13 cells in NM); 13.2 nM with BaF3 cells with FLT3-ITD; 346 nM in [1]; 235 nM in assay [2]; 45.2 nM in [3]. The IC50 was 878 nM in assay [4]; 103 nM in assay [5]; > 1000 nM in the assay with THP-1; 3.2 nM with MV4-11; 5.3 nM in the assay on MOLM13; > 1000 nM in the assay on U937. Also, the survival versus vehicle entry with MV4-11 cells was “increased survival rates”.
